Assay results from ChEMBL document CHEMBL5614434, “A Lysosome-Targeting hNEU1 Inhibitor Treats Myocardial Infarction: A Potential Therapeutic Breakthrough” (J Med Chem, 2024).
Calls of active or inactive are those of the source. The rule behind the calls is not given here.

How the values were obtained:
Mus musculus [1] = experiment: Cardioprotective activity against isoproterenol-induced myocardial injury in C57/6J mouse model assessed as reduction in CK value in serum at 15 mg/kg, ip pretreated with isoproterenol for 3 days followed by compound addition and measured after 3 days by automatic biochemical analysis; assay type: functional, organism-based; details: time 3.0 day
H9c2 [2] = experiment: Inhibition of ROS production in isoproterenol-induced rat H9c2 cells assessed as reduction in DCF value at 0.1 uM by DCFH-DA staining based flow cytometry analysis (reference value: 371.9); assay type: functional
H9c2 [3] = experiment: Induction of autophagy in isoproterenol-induced rat H9c2 cells assessed as downregulation of P62 expression by Western blot analysis; assay type: functional, cell-based
H9c2 [4] = experiment: Induction of ATP production in isoproterenol-induced rat H9c2 cells at 0.1 micromol/L by fluorescence based analysis; assay type: functional; details: dose 0.1 µmol/L
Mus musculus [5] = experiment: Cardioprotective activity against isoproterenol-induced myocardial injury in C57/6J mouse model assessed as suppression of mTORC1 overexpression at 15 mg/kg, ip pretreated with isoproterenol for 3 days followed by compound addition and measured after 3 days by immunohistochemistry analysis; assay type: functional, organism-based; details: time 3.0 day
[6] = Toxicity in isoproterenol-induced male C57/6J mouse model assessed as recovery of growth rate at 15 mg/kg, ip pretreated with isoproterenol for 3 days followed by compound addition and measured after 3 days; assay type: organism-based; details: in vivo, 72 h, time 3 day
[7] = Permeability of compound in MDCK cells; assay type: ADME, cell-based, Canis lupus familiaris; details: dog, read-out: permeability
H9c2 [8] = experiment: Induction of autophagy in isoproterenol-induced rat H9c2 cells assessed as increase in LC3-I to LC3-II conversion by confocal microscopy based analysis; assay type: functional, cell-based
H9c2 [9] = experiment: Induction of apoptosis in isoproterenol-induced rat H9c2 cells assessed as early apoptotic cells at 0.1 micromol/L by annexin V-FITC and PI staining based flow cytometry analysis (reference value: 10.37%); assay type: toxicity, cell-based; details: h9c2, 0.1 µM, dose 0.1 µmol/L
Mus musculus [10] = experiment: Cardioprotective activity against isoproterenol-induced myocardial injury in C57/6J mouse model assessed as decrease in heart weight ratio at 15 mg/kg, ip pretreated with isoproterenol for 3 days followed by compound addition and measured after 3 days (reference value: 0.56 %); assay type: functional; parameters: scale not given: the % may be the effect or the level left; details: time 3 day
[11] = Passive permeability in MDCK cells; assay type: ADME, cell-based, Canis lupus familiaris; details: dog, read-out: permeability
H9c2 [12] = experiment: Induction of autophagy in isoproterenol-induced rat H9c2 cells assessed as downregulation of PARP1 expression by Western blot analysis; assay type: functional, cell-based
Mus musculus [13] = experiment: Cardioprotective activity against isoproterenol-induced myocardial injury in C57/6J mouse model assessed as decrease in CK-MB level in serum at 15 mg/kg, ip pretreated with isoproterenol for 3 days followed by compound addition and measured after 3 days by automatic biochemical analysis; assay type: functional, organism-based; details: time 3.0 day
H9c2 [14] = experiment: Induction of apoptosis in isoproterenol-induced rat H9c2 cells assessed as late apoptotic cells at 0.1 micromol/L by annexin V-FITC and PI staining based flow cytometry analysis (reference value: 11.49%); assay type: toxicity, cell-based; details: h9c2, 0.1 µM, dose 0.1 µmol/L
H9c2 [15] = experiment: Cytotoxicity against rat H9c2 cells assessed as cell viability at 0.001 to 50 uM under normoxia condition by CCK-8 method; assay type: toxicity, cell-based; details: h9c2, 50 µM, dose 0.001-50 µM
Mus musculus [16] = experiment: Cardioprotective activity against isoproterenol-induced myocardial injury in C57/6J mouse model assessed as effect on cTNI level in serum at 15 mg/kg, ip pretreated with isoproterenol for 3 days followed by compound addition and measured after 3 days by automatic biochemical analysis; assay type: functional, organism-based; details: time 3.0 day
Mus musculus [17] = experiment: Cardioprotective activity against isoproterenol-induced myocardial injury in C57/6J mouse model assessed as reduction in cardiac swelling size at 15 mg/kg, ip pretreated with isoproterenol for 3 days followed by compound addition and measured after 3 days (reference value: 5.15 millimeter); assay type: functional; details: time 3 day
[18] = Drug uptake in lysosomes of rat H9c2 cells assessed as time required for compound concentration in lysosomes to exceed the cell lysates by HPLC analysis; assay type: ADME, subcellular, Lysosome

In the case of `CCOC(=O)C1=C[C@@H](OC(CC)CC)[C@H](NC(C)=O)[C@@H](N)C1` [OSELTAMIVIR], the Activity (Mus musculus [1]) is reported as “Active”, the Activity (H9c2 [2]) is reported as 309.1 and the Activity (H9c2 [3]) is reported as “Active”. For the same compound, the Activity (H9c2 [4]) was 38.3 nmol/mg, the Activity (Mus musculus [5]) was “Active” and the Activity [6] was “Non-Toxic”. The Papp [7] was 580 nm/s, the Activity (H9c2 [8]) was “inactive” and the Activity (H9c2 [9]) was 2.78%. The Activity (Mus musculus [10]) was 0.5%, the Papp [11] was > 200 nm/s and the Activity (H9c2 [12]) was “Active”. For the same compound, the Activity (Mus musculus [13]) was “Active”, the Activity (H9c2 [14]) was 8.91% and the Activity (H9c2 [15]) was “Non-Toxic”. The Activity (Mus musculus [16]) was “Active” and the Activity (Mus musculus [17]) was 4.65 mm.

Work on `CCC(CC)O[C@@H]1C=C(C(=O)O)C[C@H](N)[C@H]1NC(C)=O` [OSELTAMIVIR CARBOXYLATE] yielded a Time [18] of 7.15 min.
